{"source": "patent US20230226092A1", "about": "“CANCER […] ON G[…]” (NuCana plc, priority 2015, published 2023)", "tested_on": "advance progressive cancers that are refractory to, or have relapsed on, all conventional therapies", "experiment": "ProGem1 dose escalation clinical study: clinical response (RECIST 1.1, tumour markers)", "assay_type": "in vivo, human", "set-up": "CA125 level / CA19.9 / CEA / CA125 / Tumour volume / CA 15.3 tumour marker / inhibin B: unit not given here", "details": "for CA 15.3 tumour marker: 726 at base; for inhibin B: 1,038 prior to study entry", "from_the_text": "The following data were generated in clinical studies of NUC-1031 in human patients with advance progressive cancers that are refractory to, or have relapsed on, all conventional therapies that have been used to date. The results clearly illustrate the ability of NUC-1031 to successfully treat refractory cancers.\nAlthough the primary objectives of the dose escalation part of the study were to determine the Recommended Phase II Dose (RP2D) and safety profile, secondary objectives included determining the PK profile, however effective treatment of patients with a range of refractory cancers has also been observed as part of this study.\nA total of 68 patients have been entered into this dose escalation study, of which 49 were evaluable for clinical response in that they have received at least 2 Cycles of NUC-1031 and were therefore eligible for a RECIST 1.1 assessment.\nNUC-1031 was administered as a 5 to 30 minute intravenous slow bolus injection. • Schedule A: NUC-1031 was administered on days 1, 8, 15 of a 4 weekly Cycle. • Schedule B: NUC-1031 was administered on days 1, 5, 8, 12, 15, 19, of a 4 weekly Cycle.\nEvaluable patients were patients that received ≥ 2 Cycles of NUC-1031 and were therefore eligible for a RECIST 1.1 assessment at the end of Cycle 2. Where the disease response duration, measured in months, is followed by a “+” this indicates ongoing disease control as of the latest cut-off date.", "key": {"[1]": {"details": "evaluable patients n = 49, RECIST 1.1"}}}
{"substance": "gemcitabine-[phenyl-benzoxy-L-alaninyl)]-phosphate [NUC-1031]", "values": [{"measurement": "Reduction in tumour volume", "setting": "Patient 037, pancreatic cancer, CT scan on 29th April 2014", "result": 30, "unit": "%"}, {"measurement": "Reduction in tumour volume", "setting": "Patient 037, pancreatic cancer, end of Cycle 2 CT scan", "result": 18.4, "unit": "%"}, {"measurement": "CEA", "setting": "Patient 037, pancreatic cancer, from 536 at baseline", "result": 42}, {"measurement": "CA19.9", "setting": "Patient 037, pancreatic cancer, from 15,000 at baseline", "result": "4,000"}, {"measurement": "Response to RECIST", "setting": "Patient 038, ovarian cancer, 900 mg/m^2 weekly", "result": "Progressive Disease"}, {"measurement": "Increase in tumour volume", "setting": "Patient 038, ovarian cancer, end of Cycle 2 scan", "result": 25, "unit": "%"}, {"measurement": "Disease response duration", "setting": "Patient 040, cholangiocarcinoma", "result": 4, "unit": "months"}, {"measurement": "CA19.9", "setting": "Patient 040, cholangiocarcinoma, 4th June, from 664 at baseline", "result": 155}, {"measurement": "Response to RECIST", "setting": "Patient 040, cholangiocarcinoma, 1,000, then 900 mg/m^2 weekly", "result": "Stable Disease"}, {"measurement": "Tumour volume", "setting": "Patient 040, cholangiocarcinoma, end of Cycle 2 CT scan, from 85 at base", "result": 82.1}, {"measurement": "Disease response duration", "setting": "Patient 041, breast cancer", "result": 4, "unit": "months"}, {"measurement": "Symptomatic benefit", "setting": "Patient 041, breast cancer", "result": "managed to reduce opioids significantly"}, {"measurement": "CA 15.3 tumour marker", "setting": "Patient 041, breast cancer, 19th May 2014", "result": 824}, {"measurement": "Response to RECIST", "setting": "Patient 041, breast cancer, 900, then 825 mg/m^2 weekly", "result": "Stable Disease"}, {"measurement": "CA 15.3 tumour marker", "setting": "Patient 041, breast cancer, at C2", "result": 845}, {"measurement": "Response to RECIST", "setting": "Patient 042, cholangiocarcinoma, 900 mg/m^2 weekly", "result": "Progressive Disease"}, {"measurement": "Reduction in tumour volume of primary target lesion", "setting": "Patient 042, cholangiocarcinoma, end of Cycle 2 CT scan", "result": 9, "unit": "%"}, {"measurement": "Disease response duration", "setting": "Patient 043, ovarian cancer", "result": 13, "unit": "months"}, {"measurement": "PET scan finding", "setting": "Patient 043, ovarian cancer, 7th April 2014", "result": "stable disease and SUV had gone down in some target tumours"}, {"measurement": "CA125", "setting": "Patient 043, ovarian cancer, 15th July, from 1,099 at baseline", "result": 910}, {"measurement": "Response to RECIST", "setting": "Patient 043, ovarian cancer, 900, then 750 mg/m^2 weekly", "result": "Stable Disease"}, {"measurement": "CA125", "setting": "Patient 043, ovarian cancer, beginning of Cycle 2, from 1.099 at baseline", "result": 783}, {"measurement": "Reduction in tumour volume from baseline", "setting": "Patient 043, ovarian cancer, end of Cycle 6 CT scan", "result": 10, "unit": "%"}, {"measurement": "Volume of fluid drained from pleural effusion", "setting": "Patient 043, ovarian cancer, was 300ml per week", "result": 150, "unit": "ml per week"}, {"measurement": "Disease response duration", "setting": "Patient 044, lung cancer", "result": 5, "unit": "months"}, {"measurement": "Response to RECIST", "setting": "Patient 044, lung cancer (adenocarcinoma), 900, then 825 mg/m^2 weekly", "result": "Stable Disease"}, {"measurement": "Reduction in tumour volume", "setting": "Patient 044, lung cancer, end of Cycle 2 CT scan", "result": 10, "unit": "%"}, {"measurement": "Disease response duration", "setting": "Patient 046, adrenal carcinoma", "result": 11, "unit": "months"}, {"measurement": "Response to RECIST", "setting": "Patient 046, adrenal carcinoma, 1,000, then 900, 750, 625 mg/m^2 weekly", "result": "Stable Disease"}, {"measurement": "Reduction in tumour volume from baseline", "setting": "Patient 046, adrenal carcinoma, end of Cycle 6 CT scan", "result": 12.6, "unit": "%"}, {"measurement": "Disease response duration", "setting": "Patient 048, ovarian cancer", "result": 8, "unit": "months"}, {"measurement": "Response to RECIST", "setting": "Patient 048, ovarian cancer (granulosa cell tumour), 1,000, then 900, 825, 750, 625 mg/m^2 weekly", "result": "Stable Disease"}, {"measurement": "inhibin B", "setting": "Patient 048, ovarian cancer, August", "result": 1148}, {"measurement": "inhibin B", "setting": "Patient 048, ovarian cancer, July 2014", "result": "1,106"}, {"measurement": "inhibin B", "setting": "Patient 048, ovarian cancer, September", "result": 1053}, {"measurement": "PET scan finding", "setting": "Patient 048, ovarian cancer, end of Cycle 1", "result": "stable disease and reduction in SUV at target sites"}, {"measurement": "Symptomatic benefit", "setting": "Patient 050 (202), oesophageal cancer", "result": "improvement in their dysphagia"}, {"measurement": "Response to RECIST", "setting": "Patient 050 (202), oesophageal cancer, 900 mg/m^2 weekly", "result": "Progressive Disease"}, {"measurement": "Response to RECIST", "setting": "Patient 051 (203), anal cancer, 900 mg/m^2 weekly", "result": "Progressive Disease"}, {"measurement": "Disease response duration", "setting": "Patient 052 (204), oesophageal cancer", "result": 5, "unit": "months"}, {"measurement": "Response to RECIST", "setting": "Patient 052 (204), oesophageal cancer, 900, then 825 mg/m^2 weekly", "result": "Stable Disease"}, {"measurement": "Response to RECIST", "setting": "Patient 053 (205), colon cancer, 900 mg/m^2 weekly", "result": "Progressive Disease"}, {"measurement": "Response to RECIST", "setting": "Patient 055 (207), ovarian cancer, 900, then 825, 625 mg/m^2 weekly", "result": "Stable Disease"}, {"measurement": "CA125", "setting": "Patient 055 (207), ovarian cancer, January 2015, 36 at baseline", "result": 24}, {"measurement": "Reduction in tumour volume from baseline", "setting": "Patient 055 (207), ovarian cancer, end of Cycle 6 CT scan", "result": 18, "unit": "%"}, {"measurement": "Disease response duration", "setting": "Patient 055 (207), ovarian cancer, ongoing", "result": "≥ 10", "unit": "months"}, {"measurement": "Disease response duration", "setting": "Patient 057 (209), ovarian cancer", "result": 5, "unit": "months"}, {"measurement": "Response to RECIST", "setting": "Patient 057 (209), ovarian cancer, 900, then 825, 750 mg/m^2 weekly", "result": "Stable Disease"}, {"measurement": "Reduction in tumour volume from baseline", "setting": "Patient 057 (209), ovarian cancer, end of Cycle 4 CT scan", "result": 10, "unit": "%"}, {"measurement": "Disease response duration", "setting": "Patient 058 (210), lung cancer", "result": 4, "unit": "months"}, {"measurement": "Response to RECIST", "setting": "Patient 058 (210), lung cancer, 825, then 750 mg/m^2 weekly", "result": "Stable Disease"}, {"measurement": "Disease response duration", "setting": "Patient 059 (211), cervical cancer", "result": 7, "unit": "months"}, {"measurement": "Response to RECIST", "setting": "Patient 059 (211), cervical cancer, 825, then 750, 625 mg/m^2 weekly", "result": "Stable Disease"}, {"measurement": "Response to RECIST", "setting": "Patient 060 (212), pancreatic cancer, 825 mg/m^2 weekly", "result": "Progressive Disease"}, {"measurement": "Disease response duration", "setting": "Patient 061 (213), colorectal cancer", "result": 3, "unit": "months"}, {"measurement": "Response to RECIST", "setting": "Patient 061 (213), colorectal cancer, 825 mg/m^2 weekly", "result": "Stable Disease"}, {"measurement": "Reduction in tumour volume", "setting": "Patient 061 (213), colorectal cancer, end of Cycle 2 CT scan", "result": 2, "unit": "%"}, {"measurement": "Disease response duration", "setting": "Patient 063 (215), ovarian cancer", "result": 3, "unit": "months"}, {"measurement": "Response to RECIST", "setting": "Patient 063 (215), ovarian cancer, 825, then 750, 625 mg/m^2 weekly", "result": "Stable Disease"}, {"measurement": "Response to RECIST", "setting": "Patient 064 (216), trophoblastic cancer, 825 mg/m^2 weekly", "result": "Progressive Disease"}, {"measurement": "Response to RECIST", "setting": "Patient 066 (218), colorectal cancer, 825, then 750, 625 mg/m^2 weekly", "result": "Stable Disease"}, {"measurement": "Reduction in tumour volume from baseline", "setting": "Patient 066 (218), colorectal cancer, CT scan on 30th December", "result": 16, "unit": "%"}, {"measurement": "Disease response duration", "setting": "Patient 066 (218), colorectal cancer, ongoing", "result": "≥ 8", "unit": "months"}, {"measurement": "Increase from baseline (EOS CT scan)", "setting": "Patient 067 (219), osteosarcoma", "result": 1, "unit": "%"}, {"measurement": "Response to RECIST", "setting": "Patient 067 (219), osteosarcoma, 825, then 750 mg/m^2 weekly", "result": "Stable Disease"}, {"measurement": "Disease response duration", "setting": "Patient 067 (219), osteosarcoma, ongoing", "result": "≥ 7", "unit": "months"}, {"measurement": "Response to RECIST", "setting": "Patient 068 (220), lung cancer, 825 mg/m^2 weekly", "result": "Progressive Disease"}, {"measurement": "Response to RECIST", "setting": "Patient 069 (221), colorectal cancer, 825, then 750, 675, 625, 500 mg/m^2 weekly", "result": "Stable Disease"}, {"measurement": "PET scan finding", "setting": "Patient 069 (221), colorectal cancer, PET scan on 30/10", "result": "Partial Response"}, {"measurement": "Reduction in tumour volume from baseline", "setting": "Patient 069 (221), colorectal cancer, end of C2 CT scan", "result": 11, "unit": "%"}, {"measurement": "Reduction in tumour volume from baseline", "setting": "Patient 069 (221), colorectal cancer, end of C4 CT scan", "result": 26, "unit": "%"}, {"measurement": "Disease response duration", "setting": "Patient 069 (221), colorectal cancer, ongoing", "result": "≥ 7", "unit": "months"}, {"measurement": "Clinical examination of metastases", "setting": "Patient 069 (221), colorectal cancer, pre C2 examination", "result": "cutaneous and sub cutaneous metastases were greatly reduced or almost vanished"}, {"measurement": "Best Overall Response: Partial Responses, patients (%)", "setting": "[1]", "result": "5 (10%)"}, {"measurement": "Best Overall Response: Progressive Disease, patients (%)", "setting": "[1]", "result": "11 (22%)"}, {"measurement": "Best Overall Response: Stable Disease, patients (%)", "setting": "[1]", "result": "33 (67%)"}]}
